Measured values as given in ChEMBL document CHEMBL1201862, “PubChem BioAssay data set” (2004).
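How tested: cells in 96-well plates exposed to compound for 48 hours at five concentrations. GI50 marks 50% less growth.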 Calls of active or inactive are those of the source. Rule as the data show it: active = GI50 up to about 1.1 µM and inactive = higher.

Assays:
Assay in all cases: growth of human tumour cells (NCI), 48 h
A549 = test system: A549
BT-549 = test system: BT-549
CAKI-1 = test system: CAKI-1
COLO 205 = test system: COLO 205
HCC 2998 = test system: HCC 2998
HCT-15 = test system: HCT-15
LOX IMVI = test system: LOX IMVI
MCF7 = test system: MCF7
Malme-3M = test system: Malme-3M
NCI-H23 = test system: NCI-H23
NCI-H460 = test system: NCI-H460
NCI/ADR-RES = test system: NCI/ADR-RES
OVCAR-5 = test system: OVCAR-5
SF-268 = test system: SF-268
SF-539 = test system: SF-539
SK-MEL-2 = test system: SK-MEL-2
SK-OV-3 = test system: SK-OV-3
SN12C = test system: SN12C
U-251 = test system: U-251
UACC-257 = test system: UACC-257

CC(C)(C)c1ccc(OCCOc2ccc(C(C)(C)C)cc2N)c(N)c1
GI50 (A549): 26.2 µM (inactive)
GI50 (BT-549): 91 µM (inactive)
GI50 (CAKI-1): > 100 µM (inactive)
GI50 (COLO 205): > 100 µM (inactive)
GI50 (HCC 2998): > 100 µM (inactive)
GI50 (HCT-15): 37.5 µM
GI50 (LOX IMVI): 27.8 µM (inactive)
GI50 (MCF7): > 100 µM (inactive)
GI50 (Malme-3M): 22.2 µM (inactive)
GI50 (NCI-H23): 27.6 µM (inactive)
GI50 (NCI-H460): > 100 µM (inactive)
GI50 (NCI/ADR-RES): 48.8 µM (inactive)
GI50 (OVCAR-5): > 100 µM (inactive)
GI50 (SF-268): > 100 µM (inactive)
GI50 (SF-539): > 100 µM (inactive)
GI50 (SK-MEL-2): > 100 µM (inactive)
GI50 (SK-OV-3): > 100 µM (inactive)
GI50 (SN12C): > 100 µM (inactive)
GI50 (U-251): 17.1 µM (inactive)
GI50 (UACC-257): > 100 µM (inactive)

Cc1cn(CCCCCCC2=NCCCN2)c(=O)[nH]c1=O
GI50 (A549): > 100 µM (inactive)
GI50 (BT-549): > 100 µM (inactive)
GI50 (CAKI-1): > 100 µM (inactive)
GI50 (COLO 205): > 100 µM (inactive)
GI50 (HCC 2998): > 100 µM (inactive)
GI50 (HCT-15): > 100 µM
GI50 (LOX IMVI): > 100 µM (inactive)
GI50 (MCF7): > 100 µM (inactive)
GI50 (Malme-3M): > 100 µM (inactive)
GI50 (NCI-H23): > 100 µM (inactive)
GI50 (NCI-H460): > 100 µM (inactive)
GI50 (NCI/ADR-RES): > 100 µM (inactive)
GI50 (OVCAR-5): > 100 µM (inactive)
GI50 (SF-268): > 100 µM (inactive)
GI50 (SF-539): > 100 µM (inactive)
GI50 (SK-MEL-2): > 100 µM (inactive)
GI50 (SK-OV-3): > 100 µM (inactive)
GI50 (SN12C): > 100 µM (inactive)
GI50 (U-251): > 100 µM (inactive)
GI50 (UACC-257): > 100 µM (inactive)

CC(C)C[C@H](NC(=O)[C@H](CCc1ccccc1)NC(=O)c1ccc2ccccc2n1)B(O)O
GI50 (A549): 0.233 µM (active)
GI50 (BT-549): < 0.01 µM (active)
GI50 (CAKI-1): < 0.0194 µM (active)
GI50 (COLO 205): 0.043 µM (active)
GI50 (HCC 2998): 0.0292 µM (active)
GI50 (HCT-15): 0.0883 µM
GI50 (LOX IMVI): 0.0144 µM (active)
GI50 (MCF7): < 0.01 µM (active)
GI50 (Malme-3M): < 0.01 µM (active)
GI50 (NCI-H23): 0.0367 µM (active)
GI50 (NCI-H460): 0.394 µM (active)
GI50 (NCI/ADR-RES): 0.706 µM (active)
GI50 (OVCAR-5): < 0.0268 µM (active)
GI50 (SF-268): 0.0571 µM (active)
GI50 (SF-539): < 0.01 µM (active)
GI50 (SK-MEL-2): < 0.01 µM (active)
GI50 (SN12C): < 0.01 µM (active)
GI50 (U-251): 0.178 µM (active)
GI50 (UACC-257): < 0.0156 µM (active)

O=C(Nc1ccccc1C(=O)O)C(=Cc1ccccc1O)NC(=O)c1ccccc1
GI50 (A549): > 100 µM (inactive)
GI50 (BT-549): > 100 µM (inactive)
GI50 (CAKI-1): > 100 µM (inactive)
GI50 (COLO 205): > 100 µM (inactive)
GI50 (HCC 2998): > 100 µM (inactive)
GI50 (HCT-15): > 100 µM
GI50 (LOX IMVI): 58.9 µM (inactive)
GI50 (MCF7): 9.27 µM (inactive)
GI50 (Malme-3M): > 100 µM (inactive)
GI50 (NCI-H23): > 100 µM (inactive)
GI50 (NCI-H460): > 100 µM (inactive)
GI50 (NCI/ADR-RES): > 100 µM (inactive)
GI50 (OVCAR-5): > 100 µM (inactive)
GI50 (SF-268): > 100 µM (inactive)
GI50 (SF-539): 58.6 µM (inactive)
GI50 (SK-MEL-2): > 100 µM (inactive)
GI50 (SK-OV-3): > 100 µM (inactive)
GI50 (SN12C): > 100 µM (inactive)
GI50 (U-251): > 100 µM (inactive)
GI50 (UACC-257): > 100 µM (inactive)

Cc1cc(S(=O)(=O)NC2=Nc3cccc(F)c3CN2)c(S)cc1Cl
GI50 (A549): 35.2 µM (inactive)
GI50 (BT-549): > 100 µM (inactive)
GI50 (CAKI-1): > 100 µM (inactive)
GI50 (COLO 205): > 100 µM (inactive)
GI50 (HCC 2998): > 100 µM (inactive)
GI50 (HCT-15): 69.5 µM
GI50 (LOX IMVI): 50.9 µM (inactive)
GI50 (MCF7): 61.7 µM (inactive)
GI50 (Malme-3M): > 100 µM (inactive)
GI50 (NCI-H460): 36.8 µM (inactive)
GI50 (NCI/ADR-RES): 49.4 µM (inactive)
GI50 (OVCAR-5): > 100 µM (inactive)
GI50 (SF-268): 76.9 µM (inactive)
GI50 (SF-539): 84.1 µM (inactive)
GI50 (SK-MEL-2): 35.6 µM (inactive)
GI50 (SN12C): > 100 µM (inactive)
GI50 (U-251): 44.5 µM (inactive)
GI50 (UACC-257): > 100 µM (inactive)

C=CCNC(=S)N/C=C(/C(C)=O)C(=O)Nc1ccccc1C
GI50 (A549): > 100 µM (inactive)
GI50 (BT-549): > 100 µM (inactive)
GI50 (CAKI-1): > 100 µM (inactive)
GI50 (COLO 205): > 100 µM (inactive)
GI50 (HCC 2998): > 100 µM (inactive)
GI50 (HCT-15): > 100 µM
GI50 (LOX IMVI): > 100 µM (inactive)
GI50 (MCF7): > 100 µM (inactive)
GI50 (NCI-H23): > 100 µM (inactive)
GI50 (NCI-H460): > 100 µM (inactive)
GI50 (NCI/ADR-RES): > 100 µM (inactive)
GI50 (OVCAR-5): > 100 µM (inactive)
GI50 (SF-268): > 100 µM (inactive)
GI50 (SF-539): > 100 µM (inactive)
GI50 (SK-MEL-2): > 100 µM (inactive)
GI50 (SK-OV-3): > 100 µM (inactive)
GI50 (SN12C): > 100 µM (inactive)
GI50 (U-251): > 100 µM (inactive)
GI50 (UACC-257): > 100 µM (inactive)

CCOC(=O)c1ccc2c(c1)nc1n2C(c2c(F)cccc2F)SC1 (stereo unspecified)
GI50 (A549): 23.6 µM (inactive)
GI50 (BT-549): 80.5 µM (inactive)
GI50 (CAKI-1): 78.3 µM (inactive)
GI50 (COLO 205): 14.2 µM (inactive)
GI50 (HCC 2998): 35.8 µM (inactive)
GI50 (HCT-15): 23.3 µM
GI50 (LOX IMVI): 21.1 µM (inactive)
GI50 (MCF7): 19.9 µM (inactive)
GI50 (NCI-H23): 17.6 µM (inactive)
GI50 (NCI-H460): 26.3 µM (inactive)
GI50 (NCI/ADR-RES): 18.8 µM (inactive)
GI50 (OVCAR-5): 59.6 µM (inactive)
GI50 (SF-268): 32.8 µM (inactive)
GI50 (SF-539): 21.4 µM (inactive)
GI50 (SK-MEL-2): 15.2 µM (inactive)
GI50 (SK-OV-3): 94.6 µM (inactive)
GI50 (SN12C): 56.4 µM (inactive)
GI50 (U-251): 55.6 µM (inactive)
GI50 (UACC-257): 38 µM (inactive)

O=C1NC(N2CCCCC2)=N/C1=C\c1ccccc1
GI50 (A549): > 100 µM (inactive)
GI50 (BT-549): > 100 µM (inactive)
GI50 (CAKI-1): > 100 µM (inactive)
GI50 (COLO 205): > 100 µM (inactive)
GI50 (HCC 2998): > 100 µM (inactive)
GI50 (HCT-15): > 100 µM
GI50 (LOX IMVI): > 100 µM (inactive)
GI50 (MCF7): > 100 µM (inactive)
GI50 (Malme-3M): > 100 µM (inactive)
GI50 (NCI-H23): > 100 µM (inactive)
GI50 (NCI/ADR-RES): > 100 µM (inactive)
GI50 (OVCAR-5): > 100 µM (inactive)
GI50 (SF-268): > 100 µM (inactive)
GI50 (SF-539): > 100 µM (inactive)
GI50 (SK-MEL-2): > 100 µM (inactive)
GI50 (SK-OV-3): > 100 µM (inactive)
GI50 (SN12C): > 100 µM (inactive)
GI50 (U-251): > 100 µM (inactive)
GI50 (UACC-257): > 100 µM (inactive)

O=C1Oc2ccccc2C(=O)/C1=C/NC(=S)NCCc1ccccc1
GI50 (A549): 49 µM (inactive)
GI50 (BT-549): 20.2 µM (inactive)
GI50 (CAKI-1): 35.3 µM (inactive)
GI50 (COLO 205): 48.4 µM (inactive)
GI50 (HCC 2998): 43.2 µM (inactive)
GI50 (HCT-15): 34.6 µM
GI50 (LOX IMVI): 42.9 µM (inactive)
GI50 (MCF7): 56.1 µM (inactive)
GI50 (NCI-H23): 33.1 µM (inactive)
GI50 (NCI-H460): 23.8 µM (inactive)
GI50 (NCI/ADR-RES): 38.7 µM (inactive)
GI50 (OVCAR-5): 68.4 µM (inactive)
GI50 (SF-268): 77.1 µM (inactive)
GI50 (SF-539): 31.2 µM (inactive)
GI50 (SK-MEL-2): 19.4 µM (inactive)
GI50 (SK-OV-3): 33.6 µM (inactive)
GI50 (SN12C): 40 µM (inactive)
GI50 (U-251): 53.6 µM (inactive)
GI50 (UACC-257): 62.1 µM (inactive)

CCCCc1cc2c(C)cc(=O)oc2c(O)c1O
GI50 (A549): 33.2 µM (inactive)
GI50 (BT-549): 14.6 µM (inactive)
GI50 (CAKI-1): 23.4 µM (inactive)
GI50 (COLO 205): 25.8 µM (inactive)
GI50 (HCC 2998): 3.15 µM (inactive)
GI50 (HCT-15): 26.9 µM
GI50 (LOX IMVI): 20.5 µM (inactive)
GI50 (MCF7): 21.4 µM (inactive)
GI50 (Malme-3M): 27.8 µM (inactive)
GI50 (NCI-H23): 34.9 µM (inactive)
GI50 (NCI-H460): 22.6 µM (inactive)
GI50 (NCI/ADR-RES): 22.6 µM (inactive)
GI50 (OVCAR-5): 69.7 µM (inactive)
GI50 (SF-268): 38.8 µM (inactive)
GI50 (SF-539): 21.8 µM (inactive)
GI50 (SK-MEL-2): 3.6 µM (inactive)
GI50 (SN12C): 32.4 µM (inactive)
GI50 (U-251): 23.7 µM (inactive)
GI50 (UACC-257): 20.4 µM (inactive)

Cc1csc(-n2c(C)nc3cc(Cl)ccc3c2=O)n1
GI50 (A549): > 100 µM (inactive)
GI50 (BT-549): > 100 µM (inactive)
GI50 (CAKI-1): > 100 µM (inactive)
GI50 (COLO 205): 71 µM (inactive)
GI50 (HCC 2998): > 100 µM (inactive)
GI50 (HCT-15): 67.5 µM
GI50 (LOX IMVI): 96.2 µM (inactive)
GI50 (MCF7): 31.5 µM (inactive)
GI50 (NCI-H23): 71.8 µM (inactive)
GI50 (NCI-H460): > 100 µM (inactive)
GI50 (NCI/ADR-RES): 86.3 µM (inactive)
GI50 (OVCAR-5): > 100 µM (inactive)
GI50 (SF-268): 42.8 µM (inactive)
GI50 (SF-539): > 100 µM (inactive)
GI50 (SK-MEL-2): > 100 µM (inactive)
GI50 (SK-OV-3): > 100 µM (inactive)
GI50 (SN12C): > 100 µM (inactive)
GI50 (U-251): > 100 µM (inactive)
GI50 (UACC-257): 91.6 µM (inactive)
